Laboratory results published in paper PMC4710668, “Bioactivation of food genotoxicants 5-hydroxymethylfurfural and furfuryl alcohol by sulfotransferases from human, mouse and rat: a comparative study” (Archives of Toxicology, 2014).

Legend:
[1] = system: male B6C3F1 mice; settings: 32 ppm FFA in the air (equivalent to 60 mg FFA/kg bw/day), ref National Toxicology Program [1999]; cited from earlier work
[2] = system: S. typhimurium TA100 strains expressing different SULT forms; settings: ref Glatt et al. [2012]; cited from earlier work
[3] = system: mSult2a3; experiment: HMF sulfoconjugation assay; type: biochemical, mouse
Method: (§1) Cytosolic fractions containing individual SULT forms were prepared from transgenic S. typhimurium TA1538. Table S1 in the Supplementary Material provides a summary of the thirty SULTs used in the current study together with references describing the cloning of the respective S. typhimurium TA1538 strains. The expressed SULT forms are denoted with the prefixes h, m and r for human, mouse and rat enzymes, respectively. Bacteria were grown in Luria Broth medium containing ampicillin (100 µg/ml) by stirring for 8 h at 200 revolutions/min at 37 °C. The bacterial suspensions were centrifuged at 5,000 g for 10 min. The sediments were washed twice with 25 ml of 10 mM potassium phosphate buffer (pH 7.4)/50 mM potassium chloride (KCP buffer) and centrifuged again. The pellets were taken up in 800 µl KCP buffer and sonicated thrice for 15 s with 30 s pauses in between. The soluble fraction was attained by centrifuging for 1 h at 100,000 g. The supernatants (in the following termed cytosolic preparations) were frozen at −80 °C. The protein concentrations were determined according to a bicinchoninic acid (BCA) assay protocol. The SULT concentrations in the cytosolic preparations were estimated after electrophoretic separation and immunodetection using inclusion bodies of different SULT forms as standards (Teubner et al. [2007]). The preparation of SULT inclusion bodies and the immunodetection of SULTs is described in the Supplementary Material, which also contains a representative immunoblot of different amounts of rSult1a1standard and a cytosolic preparation of S. typhimurium expressing rSult1a1 (Fig. S1).
(§2) The reactions were conducted in mixtures of 100 µl containing 25–200 µg protein, 50 mM potassium phosphate buffer (pH 7.4), 5 mM MgCl2, 50 µM PAPS and different concentrations of HMF at 37 °C. Preliminary experiments ensured that measurements were recorded under ‘linear’ conditions, i.e., doubling of protein concentration or incubation time was doubling the amount of sulfate ester formed. The reactions were stopped after 30 min by adding 300 µl ice-cold 2-propanol, mixed and centrifuged at 15,000 g for 10 min.
(§3) SMF concentrations of the clear supernatants were analyzed by UPLC-MS/MS. The protocol was adapted from the quantification of SMF in plasma samples of HMF-treated mice (Monien et al. [2009]). In short, the supernatants were analyzed using a UPLC system (Waters) connected to a Quattro Premier XE tandem quadrupole mass spectrometer (Waters) using the negative electrospray ionization mode. Samples of 4 µl were injected into a HSS T3 column (1.8 µm, 2.1 × 100 mm; Waters) and eluted with an isocratic flow of 0.35 ml/min 10 mM ammonium acetate/methanol (95:5). The fragmentation reactions of SMF yielding two principal ions, the sulfate ion radical (m/z = 204.9 → 96.0) and the protonated sulfonate ion (m/z = 204.9 → 81.0) were monitored. The tune parameters were as follows: temperature of the electrospray source 120 °C; desolvation temperature 475 °C; desolvation gas nitrogen (800 l/h); cone gas nitrogen (100 l/h); collision gas argon (indicated cell pressure ~5 × 10^−3 mbar). For the fragmentation of SMF, collision energies were 20 and 23 eV for the transitions m/z = 204.9 → 81.0 and m/z = 204.9 → 96.0, respectively. The dwell time was set to 100 ms, and capillary voltage was set to 0.35 kV. The cone and RF1 lens voltages were 32 and 0.2 V, respectively. SMF was quantified using an external calibration line that was linear in the concentration range of 1.0 nM (4 fmol/injection) to 2,500 (10 pmol/injection) SMF (r ^2 ≥ 0.99). Data acquisition and handling were performed with MassLynx 4.1 software (Waters). The limit of detection (LOD) for this technique of 2.5 nM SMF has been reported (Monien et al. [2009]). In the current study, this corresponds to 10 fmol SMF per injection or a reaction rate of 0.5 pmol SMF/mg/min.

[4] = system: mSult5a1; experiment: HMF sulfoconjugation assay; type: biochemical, mouse
Method: as §1, §2, §3

[5] = system: rSult2a3; experiment: HMF sulfoconjugation assay; type: biochemical, rat
Method: as §1, §2, §3

[6] = system: rSult2a4; experiment: HMF sulfoconjugation assay; type: biochemical, rat
Method: as §1, §2, §3

[7] = parameters: method as in Monien et al. [2009]; settings: 100 mg HMF/kg body weight administered to mice; ref Monien et al. [2009]; cited from earlier work

In the case of `OCc1ccco1` [FFA, furfuryl alcohol], the carcinogenic effect [1] is given as “induced renal tubule neoplasms” and the “mutagenicity in SULT-expressing strains” value [2] is given as “highest mutagenicity of FFA was observed in bacteria expressing hSULT1A1, 1C2 and mSult1a1”.

For `O=Cc1ccc(CO)o1` [HMF, 5-Hydroxymethylfurfural], the Rate of sulfoconjugation ([3]; 0.1 mM HMF) was <0.5 pmol/mg/min, the Rate of sulfoconjugation ([3]; 1 mM HMF) was <0.5 pmol/mg/min and the Rate of sulfoconjugation ([3]; 10 mM HMF) was <0.5 pmol/mg/min. The Rate of sulfoconjugation ([3]; 100 mM HMF) was <0.5 pmol/mg/min, the Rate of sulfoconjugation ([4]; 0.1 mM HMF) was <0.5 pmol/mg/min and the Rate of sulfoconjugation ([4]; 1 mM HMF) was <0.5 pmol/mg/min. The Rate of sulfoconjugation ([4]; 10 mM HMF) was <0.5 pmol/mg/min, the Rate of sulfoconjugation ([4]; 100 mM HMF) was <0.5 pmol/mg/min and the Rate of sulfoconjugation ([5]; 0.1 mM HMF) was 0.6 ± 0.0 pmol/mg/min. The Rate of sulfoconjugation ([5]; 1 mM HMF) was 6.2 ± 0.2 pmol/mg/min, the Rate of sulfoconjugation ([5]; 10 mM HMF) was 62.8 ± 4.6 pmol/mg/min and the Rate of sulfoconjugation ([5]; 100 mM HMF) was 76.5 ± 8.8 pmol/mg/min. For the same compound, the Rate of sulfoconjugation ([6]; 0.1 mM HMF) was <0.5 pmol/mg/min, the Rate of sulfoconjugation ([6]; 1 mM HMF) was <0.5 pmol/mg/min and the Rate of sulfoconjugation ([6]; 10 mM HMF) was <0.5 pmol/mg/min. The Rate of sulfoconjugation ([6]; 100 mM HMF) was <0.5 pmol/mg/min, the “fraction of dose converted to SMF” value [7] was 500 ppm and the “mutagenicity in SULT-expressing strains” value [2] was “small, were detectable in those strains that expressed hSULT1A1, 1A3 and 1C2 as well as mSult1a1 and 1d1”.
